Source: BigSolDB 2.1

Cc1ncc(CO)c(CO)c1O.Cl
solubility (mole fraction)
Conditions | 278.15 K | 283.15 K | 288.15 K | 293.15 K | 298.15 K | 303.15 K | 308.15 K | 313.15 K
in ethanol | 0.000447 | 0.000484 | 0.000557 | 0.000651 | 0.000801 | 0.000989 | 0.00118 | 0.00143
in methanol | 0.00221 | 0.00253 | 0.0028 | 0.00329 | 0.00373 | 0.00425 | 0.00486 | 0.00549
in water | 0.0105 | 0.0123 | 0.0144 | 0.0168 | 0.0191 | 0.022 | 0.025 | 0.0286
